Test results reported in paper PMC12856912, “Structure-Guided Semisynthesis of Blasticidin S–Amicetin Chimeras as Selective Ribosome Inhibitors” (Journal of the American Chemical Society, 2026).
Values after ≈ are worked out from the molar mass of the structure shown.

Legend:
MRSA ATCC 43300 = test: Antibacterial MIC assay, serial dilution; type: cell-based, Staphylococcus aureus; details: for Selectivity index (CC50/MIC) MRSA 43300: CC50 Vero cells / MIC; for MIC: Staphylococcus aureus, read-out: MIC MRSA ATCC 43300
Summary of the method: (§1)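 Overnight cultures were subcultured in CAMHB to OD600 ~0.5, then diluted to OD600 0.004 and added to serially diluted compound (final 128–1 μg/mL). After incubation at 37 °C for 16–18 h, or 24 h for VRE, growth was read at OD600 and MIC taken as >90% inhibition.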

S. aureus ATCC 6538P = test: Antibacterial MIC assay, serial dilution; type: cell-based, Staphylococcus aureus; details: for Selectivity index (CC50/MIC) S. aureus 6538P: CC50 Vero cells / MIC; for MIC: Staphylococcus aureus, ATCC 6538P / ATCC 6539P, read-out: MIC S. aureus ATCC 6539P
Summary of the method: as §1

S. aureus ΔNorA = test: Antibacterial MIC assay, serial dilution; type: cell-based, Staphylococcus aureus; details: for Selectivity index (CC50/MIC) S. aureus ΔNorA: CC50 Vero cells / MIC; for MIC: Staphylococcus aureus, read-out: MIC S. aureus ∆NorA
Summary of the method: as §1

[1] = test system: Methicillin resistant Staphylococcus epidermidis (MRSE) ATCC 35984 NRS101; test: Antibacterial MIC assay, serial dilution; type: cell-based; details: for Selectivity index (CC50/MIC) MRSE 35984: CC50 Vero cells / MIC; for MIC: Staphylococcus epidermidis, read-out: MIC Methicillin resistant Staphylococcus epidermidis (MRSE) ATCC 35984 NRS101
[2] = test system: Methicillin resistant S. aureus (MRSA) USA300; test: Antibacterial MIC assay, serial dilution; type: cell-based, Staphylococcus aureus; details: for Selectivity index (CC50/MIC) MRSA USA300: CC50 Vero cells / MIC; for MIC: Staphylococcus aureus, read-out: MIC Methicillin resistant S. aureus (MRSA) USA300
[3] = test system: Vancomycin resistant E. faecalis NR-31972 (VRE); test: Antibacterial MIC assay, serial dilution; type: cell-based, Enterococcus faecalis; details: for Selectivity index (CC50/MIC) VRE NR-31972: CC50 Vero cells / MIC; for MIC: Enterococcus faecalis, VRE, 24 h, read-out: MIC Vancomycin resistant E. faecalis NR-31972 (VRE)
Summary of the method: as §1

[4] = test system: Acinetobacter baumannii ATCC 17978; test: Antibacterial MIC assay, serial dilution; type: cell-based; details: ATCC17978, range from biological replicates
Summary of the method: as §1

[5] = test system: Enterococcus faecalis ATCC 29212; test: Antibacterial MIC assay, serial dilution; type: cell-based; details: for Selectivity index (CC50/MIC) E. faecalis 29212: CC50 Vero cells / MIC; for MIC: Enterococcus faecalis, ATCC 29112 / ATCC 29212, 24 h, read-out: MIC E. faecalis ATCC 29112
[6] = test system: Klebsiella pneumoniae ATCC 29665; test: Antibacterial MIC assay, serial dilution; type: cell-based; details: for MIC: Klebsiella pneumoniae, ATCC29665, range from biological replicates, read-out: MIC K. pneumoniae ATCC-29665
Summary of the method: as §1

Pseudomonas aeruginosa = test: Antibacterial MIC assay, serial dilution; type: cell-based; details: for MIC: Pseudomonas aeruginosa, range from biological replicates, read-out: MIC P. aeruginosa
Summary of the method: as §1

[7] = test system: Vancomycin resistant Enterococcus faecium NR-31909 (VRE); test: Antibacterial MIC assay, serial dilution; type: cell-based; details: for Selectivity index (CC50/MIC) VRE NR-31909: CC50 Vero cells / MIC; for MIC: Enterococcus faecium, VRE, 24 h, read-out: MIC Vancomycin resistant Enterococcus faecium NR-31909 (VRE)
Summary of the method: as §1

[8] = test system: Escherichia coli BAA-2452; test: Antibacterial MIC assay, serial dilution; type: cell-based; details: BAA2452, read-out: MIC Escherichia coli BAA-2452
[9] = Cytotoxicity assay (MTS/PMS); type: cell-based; details: monkey, Vero cells (monkey kidney epithelial cells); 24 h treatment, MTS/PMS, average of three biological replicates; read-out: CC50 against Vero cells
Summary of the method: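 CC50 (µg/mL) was taken as the compound level that lowered vehicle-normalized viability to 50%, from MTS/PMS absorbance at 490 nm after 4 h with reagent. Monkey kidney Vero cells in DMEM/10% FBS received serial dilutions for 24 h at 37 °C, in three biological replicates.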

SMILES	Selectivity index (CC50/MIC) MRSA 43300 (MRSA ATCC 43300)	MIC (MRSA ATCC 43300)	Selectivity index (CC50/MIC) S. aureus 6538P (S. aureus ATCC 6538P)	MIC (S. aureus ATCC 6538P)	Selectivity index (CC50/MIC) S. aureus ΔNorA (S. aureus ΔNorA)	MIC (S. aureus ΔNorA)	Selectivity index (CC50/MIC) MRSE 35984 [1]	MIC [1]	Selectivity index (CC50/MIC) MRSA USA300 [2]	MIC [2]	Selectivity index (CC50/MIC) VRE NR-31972 [3]	MIC [3]	MIC [4]	Selectivity index (CC50/MIC) E. faecalis 29212 [5]	MIC [5]	MIC [6]	MIC (Pseudomonas aeruginosa)	Selectivity index (CC50/MIC) VRE NR-31909 [7]	MIC [7]	MIC [8]	further results
CNc1ccc(C(=O)Nc2ccn([C@H]3C=C[C@H](NC(=O)C[C@@H](N)CCN(C)C(=N)N)[C@@H](C(=O)NCCc4ccccc4)O3)c(=O)n2)cc1 [Blastimidine P3]	>3.0	64 to 128 µg/mL (≈ 97.2 to 194 µM)	>12	16 to 32 µg/mL (≈ 24.3 to 48.6 µM)	>48	4 to 8 µg/mL (≈ 6.07 to 12.1 µM)	>32	8 µg/mL (≈ 12.1 µM)	>8.0	32 µg/mL (≈ 48.6 µM)	>16	16 µg/mL (≈ 24.3 µM)	> 128 µg/mL	>24	8 to 16 µg/mL (≈ 12.1 to 24.3 µM)	> 128 µg/mL	64 to 128 µg/mL (≈ 97.2 to 194 µM)	>2.0	128 µg/mL (≈ 194 µM)	64 µg/mL (≈ 97.2 µM)	Selectivity index (CC50/MIC) P. aeruginosa (Pseudomonas aeruginosa; CC50 Vero cells / MIC): >3.0; CC50 at 24 h [9]: > 256 µg/mL
CN(CC[C@H](N)CC(=O)N[C@H]1C=C[C@H](n2ccc(NC(=O)c3ccc(NC(=O)[C@@](C)(N)CO)cc3)nc2=O)O[C@@H]1C(=O)NCCc1ccccc1)C(=N)N [Blastimidine P5]	>8.0	32 µg/mL (≈ 42.9 µM)	>16	16 µg/mL (≈ 21.5 µM)	>16	16 µg/mL (≈ 21.5 µM)	>16	16 µg/mL (≈ 21.5 µM)	>16	16 µg/mL (≈ 21.5 µM)	>8.0	32 µg/mL (≈ 42.9 µM)	> 128 µg/mL	>8.0	32 µg/mL (≈ 42.9 µM)	64 to 128 µg/mL (≈ 85.8 to 172 µM)	> 128 µg/mL	>11	16 to 32 µg/mL (≈ 21.5 to 42.9 µM)	128 µg/mL (≈ 172 µM)	Selectivity index (CC50/MIC) K. pneumoniae ([6]; CC50 Vero cells / MIC): >3.0; CC50 at 24 h [9]: > 256 µg/mL
